Measured values as given in ChEMBL document CHEMBL3044589, “Effects of propylene oxide doses on Cyperus and Belonolaimus control and nutrient absorption in tomato” (2007).
Active and inactive are the calls of the source. The calls are words filed in the database; no cut-off is given here.

Columns and labels:
[1] = test system: Solanum lycopersicum; assay: Increase in Solanum lycopersicum (tomato) plant yield at 760 l/ha applied 12 days prior to transplantation measured after 12 to 14 weeks relative to untreated-control; type: functional
[2] = test system: Solanum lycopersicum; assay: Increase in Solanum lycopersicum (tomato) plant yield at […] applied 12 days prior to transplantation measured after 12 to 14 weeks relative to untreated-control; type: functional
[3] = test system: Solanum lycopersicum; assay: Increase in Solanum lycopersicum (tomato) plant yield at 190 to 950 l/ha applied 12 days prior to transplantation measured after 12 to 14 weeks; type: functional, organism-based
[4] = test system: Solanum lycopersicum; assay: Increase in Solanum lycopersicum (tomato) plant vigor at 190 to 950 l/ha applied 12 days prior to transplantation measured after 10 weeks; type: functional, organism-based
[5] = test system: Solanum lycopersicum; assay: Increase in Solanum lycopersicum (tomato) foliar potassium concentration at 190 to 950 l/ha applied 12 days prior to transplantation measured after 4 weeks (reference value: 2.38%); type: functional
[6] = test system: Solanum lycopersicum; assay: Increase in Solanum lycopersicum (tomato) foliar phosphorus concentration at 190 to 950 l/ha applied 12 days prior to transplantation measured after 4 weeks (reference value: 0.31%); type: functional
[7] = test system: Belonolaimus; assay: Nematocidal activity against Belonolaimus at 190 to 950 l/ha applied 12 days prior to tomato transplantation measured after 14 weeks; type: functional, organism-based
[8] = test system: Cyperus; assay: Herbicidal activity against Cyperus at 850 l/ha applied 12 days prior to tomato transplantation measured after 14 weeks relative to control; type: functional
[9] = test system: Cyperus; assay: Herbicidal activity against Cyperus at 775 l/ha applied 12 days prior to tomato transplantation measured after 8 weeks relative to control; type: functional
[10] = test system: Cyperus; assay: Herbicidal activity against Cyperus at 190 l/ha applied 12 days prior to tomato transplantation measured after 4 weeks relative to control; type: functional
[11] = test system: Cyperus; assay: Herbicidal activity against Cyperus at 190 to 950 l/ha applied 12 days prior to tomato transplantation measured after 4 to 14 weeks relative to control; type: functional, organism-based

Structure (SMILES): CC1CO1 (stereo unspecified) [PROPYLENE OXIDE]
- fold change (FC) [1]: 4.1
- fold change (FC) [2]: 3.5
- Activity [3]: Active
- Activity [4]: Active
- Activity [5]: 3.25%
- Activity [6]: 0.51%
- Activity [7]: Active
- Activity [8]: 80%
- Activity [9]: 80%
- Activity [10]: 80%
- Activity [11]: Active
